{
  "source": "patent US6528685B2",
  "about": "(Teva Pharmaceutical Industries, Ltd., priority 1994, dated 2003)",
  "key": {"rats [1]": {"system": "rats", "assay": "Neurotoxicity in rats, positional sense test and gait stance test", "conditions": "rats p.o.; positional sense test and gait stance test", "procedure": "(§1) Neurotoxicity of the claimed agents was also assessed in mice (i.p. administration) by the rotorod ataxia test and/or in rats (p.o. administration) by positional sense test and gait stance test. […] The term quantitating the neurotoxicity is the medial neurological toxic dose (TD50), was determined in the above tests."}, "mice [2]": {"system": "mice", "assay": "Neurotoxicity in mice, rotorod ataxia test", "conditions": "mice i.p.; rotorod ataxia test", "procedure": "as §1"}, "[3]": {"system": "Mechanically dissociated Neonatal Rat Cerebellum", "assay": "Reversal of NMDA induced cell death, neonatal rat cerebellum cultures", "assay_type": "cell-based", "conditions": "for SURVIVING CELL IN CULTURE: relative to control (100%); for PERCENT PROTECTION: cell survival minus NMDA effect (30%); for EFFECTIVE PROTECTION: percent protection x 100/70", "procedure": "(§2) The cerebellum was aseptically dissociated from 6 or 7-day old rat pups and placed in a 15 ml sterile plastic conical tube containing 3 ml of Dulbecco's modified Eagle's medium (DMEM) with a high glucose concentration ([…]) and 2 mM (v/v) L-glutamine and an antibiotic antimitotic mixture. The cerebella were then dissociated after 20-25 passages through a sterile 13 gauge, 10 cm long stainless steel needle attached to a 5 ml syringe with an inserted 45 micrometer pore nylon sieve. The dissociated cells were centrifuged at 200 g for 5 minutes. The supernatant was discarded and the cells resuspended in medium enriched with 15% (v/v) heat inactivated fetal calf serum. Cell viability was determined by the tryptan blue exclusion test.\n(§3) Cells were plated at a density of 200/mm^2 on poly-L-lysine coated surfaces. Poly-L-lysine coated glass coverslips were prepared at least one hour in advance of plating by immersing sterile coverslips in sterile distilled water solution containing 15 microgram/ml poly-L-lysine, and washing in sterile water just prior to use. The plated cells were covered with enriched medium and incubated at 37° C. in an atmosphere of 5% CO2 in air and 97% humidity. After three days in culture, the media was replaced with media containing the desired test compound. Each test compound was tested in duplicate. Toxic-dose response was determined for each compound.\nFour groups were run in each set of experiments;\nI. Control, consisting of enriched media alone,\nII. N-methyl-D-aspartate (NMDA, 1 mM for 3 hours) as the cytotoxic challenge,\nIII. Test compound plus NMDA, and\nIV. Positive control, spermine(0.01 micromoles) plus NMDA.\nNerve cell survival was evaluated by phase contrast microscopy and tryptan blue staining after 24 hours.\nSurviving cells in culture are measured relative to control (100%) as described above. Percent protection is the Cell Survival for the test compound minus the NMDA effect. Thus, maximal protection is 100% minus 30% NMDA effect i.e. 70%. The Effective Protection was calculated as the percent of the Percent Protection (X) divided by the maximal protection value (e.g. X×100/70)."}, "[4]": {"system": "Mechanically dissociated Neonatal Rat Cerebellum", "assay": "Enhancement of cell survival, neonatal rat cerebellum cultures without NMDA", "assay_type": "cell-based", "conditions": "0.005 μM; 24 hours after addition, fourth day; percentage of control cells; no NMDA", "procedure": "as §2, with “The supernatant was discarded and the cells resuspended in medium enriched with 15% (v/v) heat inactivated fetal calf serum.” left out\nas §3, with “The plated cells were covered with enriched medium and incubated at 37° C. in an atmosphere of 5% CO2 in air and 97% humidity.” left out\nCell cultures were grown as described above but in the absence of NMDA and after 3 days a dose of test compound was added. Cell survival was monitored as described above."}, "mongolian gerbils": {"system": "mongolian gerbils", "assay": "Global brain ischemia in gerbils", "assay_type": "in vivo, mongolian gerbil", "conditions": "3 injections, fraction of hippocampi protected from ischemia, 14 days post-ischemia", "procedure": "Male mongolian gerbils, aged 2.5-5 months, housed 4-8 in a cage, were supplied freely with food and water and maintained at 24° C. with a 12 hour day/night cycle. […] Each artery was clamped for 5 minutes with aneurysm clips to produce global brain ischemia. The anesthesia was discontinued upon clamping. After 5 minutes the clamps were removed and the wound closed with skin clips.\nFor treatment, the test compound or vehicle were injected intra-peritoneally (ip) in a volume of 50 microliters of solvent per 10 g body weight. The first injection was given two minutes after clamp removal, and thereafter daily for the next 2 post-operative days (total of 3 injections).\nSeven groups each of 4-8 animals were compared:\nV. Ischemia—Test compound treated, one sub-group per concentration tested,\nVI. Ischemia and pentobarbital (40 mg/kg) as positive control).\nAnalysis of neuronal damage was performed 14 days post-ischemia by counting pyramidal neurons throughout the CA1 layer of the anterior hippocampus in […] thick (paraffin) coronal brain sections stained with hematoxylin and erosin.\nPercent Protection values represent the fraction of hippocampi protected from ischemia in a group of animals treated with the stated dose of compound."}, "rats [5]": {"system": "rats", "assay": "Maximal electroshock (MES) model, rats", "conditions": "rats, oral (p.o.) administration; median effective dose"}, "mice [6]": {"system": "mice", "assay": "Maximal electroshock (MES) model, mice", "conditions": "mice, intraperitoneal (i.p.) administration"}, "rats [7]": {"system": "rats", "conditions": "rats p.o."}, "mice [8]": {"system": "mice", "conditions": "mice i.p."}},
  "note": "Where a name gives a salt, the structure may show the parent alone.",
  "data": [
    {"molecule": "NC(=O)CN[C@H]1CCc2ccccc21", "note": "[Compound 2, (S)-N-(2-Acetamido)-1-aminoindan.HCl]", "values": [
      {"measurement": "RATS TD50", "setting": "rats [1]", "result": ">500", "unit": "mg/kg"},
      {"measurement": "MICE TD50", "setting": "mice [2]", "result": 137, "unit": "mg/kg"},
      {"measurement": "SURVIVING CELL IN CULTURE", "setting": "[3]; 0.005 μM + NMDA 1 mM 3 hours", "result": 56, "unit": "%"},
      {"measurement": "PERCENT PROTECTION", "setting": "[3]; 0.005 μM + NMDA", "result": 26, "unit": "%"},
      {"measurement": "EFFECTIVE PROTECTION", "setting": "[3]; 0.005 μM + NMDA", "result": 37, "unit": "%"},
      {"measurement": "SURVIVING CELL IN CULTURE", "setting": "[3]; 0.010 μM + NMDA 1 mM 3 hours", "result": 51, "unit": "%"},
      {"measurement": "PERCENT PROTECTION", "setting": "[3]; 0.010 μM + NMDA", "result": 21, "unit": "%"},
      {"measurement": "EFFECTIVE PROTECTION", "setting": "[3]; 0.010 μM + NMDA", "result": 30, "unit": "%"},
      {"measurement": "SURVIVING CELL IN CULTURE", "setting": "[3]; 0.100 μM + NMDA 1 mM 3 hours", "result": 33, "unit": "%"},
      {"measurement": "PERCENT PROTECTION", "setting": "[3]; 0.100 μM + NMDA", "result": 3, "unit": "%"},
      {"measurement": "EFFECTIVE PROTECTION", "setting": "[3]; 0.100 μM + NMDA", "result": 4, "unit": "%"},
      {"measurement": "% ENHANCED SURVIVAL", "setting": "[4]", "result": 140, "unit": "%"},
      {"measurement": "PERCENT PROTECTION", "setting": "mongolian gerbils; 0.1 mg/kg ip", "result": 0, "unit": "%"},
      {"measurement": "PERCENT PROTECTION", "setting": "mongolian gerbils; 1.0 mg/kg ip", "result": 50.0, "unit": "%"},
      {"measurement": "PERCENT PROTECTION", "setting": "mongolian gerbils; 10.0 mg/kg ip", "result": 37.5, "unit": "%"},
      {"measurement": "RATS MES 50", "setting": "rats [5]", "result": 21, "unit": "mg/kg"},
      {"measurement": "MICE MES ED50", "setting": "mice [6]", "result": 39, "unit": "mg/kg"},
      {"measurement": "RATS scMet ED50 PI", "setting": "rats [7]", "result": ">250", "unit": "mg/kg"},
      {"measurement": "MICE scMet ED50 PI", "setting": "mice [8]", "result": ">150", "unit": "mg/kg"}
    ]}
  ]
}
